From US20240336657A1, “G-ALPHA-S PEPTIDE INHIBITORS AND USES THEREOF” (The Regents of the University of California, priority 2021, published 2024)
Positions of bridges follow the written chain, without caps; N, C: chain ends. Non-standard residues stand in square brackets, D forms with d. Residues, ends and D or L forms follow the SMILES beside them.

B1: GN13 (peptide)
peptide: {CH2CO}-[dY]FESVYAIWGTLCG-NH2
modifications: thioether N-13
SMILES: CC[C@H](C)[C@@H]1NC(=O)[C@H](C)NC(=O)[C@H](Cc2ccc(O)cc2)NC(=O)[C@H](C(C)C)NC(=O)[C@H](CO)NC(=O)[C@H](CCC(=O)O)NC(=O)[C@H](Cc2ccccc2)NC(=O)[C@@H](Cc2ccc(O)cc2)NC(=O)CSC[C@@H](C(=O)NCC(N)=O)NC(=O)[C@H](CC(C)C)NC(=O)[C@H]([C@@H](C)O)NC(=O)CNC(=O)[C@H](Cc2c[nH]c3ccccc23)NC1=O
notes: Residue numbers in the text (E3, V5, I8, W9, T11) fit this order; In the RaPID selections the peptide carried a GSGSGS linker, puromycin and its mRNA/cDNA; also called cyclic peptide GN13

Assays:
[1] = target: WT Gαs (Homo sapiens, UniProt P63092); test: Gαs inhibition in the presence of Gβγ (FIG. 4, FIGS. 6A-6B); type: biochemical
WT Gαs, sequence (P63092 whole entry): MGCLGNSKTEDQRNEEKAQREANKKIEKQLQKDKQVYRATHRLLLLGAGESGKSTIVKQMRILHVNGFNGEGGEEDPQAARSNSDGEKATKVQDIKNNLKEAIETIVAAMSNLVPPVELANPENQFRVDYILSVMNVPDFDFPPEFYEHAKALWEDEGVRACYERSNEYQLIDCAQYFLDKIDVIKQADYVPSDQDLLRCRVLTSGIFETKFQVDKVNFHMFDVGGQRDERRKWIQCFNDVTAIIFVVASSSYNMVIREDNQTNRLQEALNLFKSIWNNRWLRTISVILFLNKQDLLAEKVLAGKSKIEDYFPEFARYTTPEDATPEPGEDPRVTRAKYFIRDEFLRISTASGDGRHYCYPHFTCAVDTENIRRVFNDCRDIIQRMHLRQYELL

[2] = target: R201C Gαs (Homo sapiens, UniProt P63092, R201C); test: Gαs mutant inhibition (FIGS. 1A-1B, FIGS. 6A-6B); type: biochemical; conditions: in the presence of Gβγ
R201C Gαs, sequence (P63092 whole entry R201C): as the sequence (P63092 whole entry) above, with R201C counted along it

[3] = target: R201H Gαs (Homo sapiens, UniProt P63092, R201H); test: Gαs mutant inhibition in the presence of Gβγ (FIGS. 6A-6B); type: biochemical
R201H Gαs, sequence (P63092 whole entry R201H): as the sequence (P63092 whole entry) above, with R201H counted along it

[4] = target: Gαs S275L (Homo sapiens, UniProt P63092, S275L); test: Gαs inhibition with mutation in the cyclic peptide binding site (FIGS. 6A-6B); type: biochemical; conditions: in the assay tested
Gαs S275L, sequence (P63092 whole entry S275L): as the sequence (P63092 whole entry) above, with S275L counted along it

[5] = target: R201C Gαs/GDP (Homo sapiens, UniProt P63092, R201C); test: Binding to R201C Gαs/GDP (FIGS. 7A-7B)
R201C Gαs/GDP, sequence (P63092 whole entry R201C): as the sequence (P63092 whole entry) above, with R201C counted along it

[6] = target: WT Gαs (purified, adenylyl cyclase activity assay) (UniProt P63092-2 7-380); test: cell-based or functional assay
WT Gαs (purified, adenylyl cyclase activity assay), sequence (P63092 other isoform, or with tags, fused parts or gaps limits assumed): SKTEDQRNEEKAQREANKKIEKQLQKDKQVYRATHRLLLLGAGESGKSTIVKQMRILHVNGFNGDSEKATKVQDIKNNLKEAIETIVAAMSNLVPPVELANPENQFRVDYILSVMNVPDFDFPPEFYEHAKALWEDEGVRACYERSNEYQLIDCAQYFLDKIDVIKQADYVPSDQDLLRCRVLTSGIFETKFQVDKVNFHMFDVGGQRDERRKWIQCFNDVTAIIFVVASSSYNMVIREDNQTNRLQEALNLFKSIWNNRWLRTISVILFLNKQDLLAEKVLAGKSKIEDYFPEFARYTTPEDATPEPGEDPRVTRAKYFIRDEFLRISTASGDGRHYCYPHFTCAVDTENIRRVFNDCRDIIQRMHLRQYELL

[7] = target: WT Gαs in HEK293 cell membranes, P63092; test: cell-based or functional assay
WT Gαs in HEK293 cell membranes, P63092, sequence (P63092 2-394): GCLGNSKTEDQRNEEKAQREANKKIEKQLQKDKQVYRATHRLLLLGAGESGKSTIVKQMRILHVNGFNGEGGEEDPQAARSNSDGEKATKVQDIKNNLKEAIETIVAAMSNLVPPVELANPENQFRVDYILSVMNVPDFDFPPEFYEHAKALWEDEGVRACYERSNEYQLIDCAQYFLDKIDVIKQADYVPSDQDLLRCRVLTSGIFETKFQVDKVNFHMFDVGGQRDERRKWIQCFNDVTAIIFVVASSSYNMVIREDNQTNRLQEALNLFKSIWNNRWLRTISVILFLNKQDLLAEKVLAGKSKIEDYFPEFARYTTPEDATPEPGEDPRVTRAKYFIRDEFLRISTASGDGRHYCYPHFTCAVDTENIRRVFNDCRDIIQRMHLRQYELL

[8] = target: T1, Biotinylated Avi-tagged Gαi1 (residues 2-354 of human Gαi1), GppNHp-bound (human, UniProt P63096 2-354, biotin on the Avi tag (BirA)); test: BLI, biotinylated Gα on streptavidin biosensors
T1 construct: Loaded with GppNHp; Same polypeptide as m9, other nucleotide state
T1 sequence (P63096 other isoform, or with tags, fused parts or gaps limits assumed): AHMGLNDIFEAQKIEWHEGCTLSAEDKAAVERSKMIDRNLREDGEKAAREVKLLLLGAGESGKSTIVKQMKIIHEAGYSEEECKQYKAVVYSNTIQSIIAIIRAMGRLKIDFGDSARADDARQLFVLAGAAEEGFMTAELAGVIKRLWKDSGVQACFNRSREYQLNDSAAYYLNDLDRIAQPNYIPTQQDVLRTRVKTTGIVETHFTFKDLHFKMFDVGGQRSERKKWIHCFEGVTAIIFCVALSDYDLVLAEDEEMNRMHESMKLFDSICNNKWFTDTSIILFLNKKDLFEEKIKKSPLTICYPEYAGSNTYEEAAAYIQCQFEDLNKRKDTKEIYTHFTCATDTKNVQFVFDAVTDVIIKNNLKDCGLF
Experimental: (§1) BLI experiments were performed using an OctetRED384 instrument from ForteBio. All experiments were performed at 25° C. using BLI buffer (10 mM HEPES pH 7.4, 150 mM NaCl, 1 mM MgCl₂, 0.05% Tween-20, 0.1% DMSO, 0.2 mM GppNHp or GDP). Cyclic peptides were diluted to a series of concentrations in BLI buffer plus 10 μM Biotin. Assays were conducted in Greiner 384well, black, flat bottom polypropylene plates containing the protein solutions, BLI buffer plus 10 μM Biotin for dissociation, and serial dilutions of cyclic peptides to be tested.
(§2) Biotinylated proteins were immobilized on Streptavidin biosensors by dipping sensors into plate wells containing protein solutions at a concentration of 100-150 nM. Protein loading is around 2-3 nm. Sensors loaded with proteins were moved and dipped into wells with BLI buffer plus 10 μM Biotin to block unlabeled Streptavidin. […] Association and dissociation times were carefully determined to ensure full association and dissociation.
(§3) Raw kinetic data collected were processed with the Data Analysis software provided by the manufacturer using single reference subtraction in which buffer-only reference was subtracted (For GN13 analysis). […] The resulting data were analyzed based on a 1:1 binding model from which kₒₙ and koff values were obtained and then Kd values were calculated.

[9] = target: T2, Biotinylated Avi-tagged Gαi1 (residues 2-354 of human Gαi1), GDP-bound (human, UniProt P63096 2-354, biotin on the Avi tag (BirA)); test: BLI, biotinylated Gα on streptavidin biosensors
T2 construct: Loaded with GDP; also called avi-Gαi (FL, WT)
T2 sequence (P63096 other isoform, or with tags, fused parts or gaps limits assumed): as above
Experimental: as §1, §2, §3

[10] = target: T3, Biotinylated His/Avi-tagged Gαs used in the RaPID selection, GppNHp-bound (human, UniProt P63092 7-394, biotin on the Avi tag (BirA co-expressed)); test: RaPID comparison selection: peptide-mRNA-cDNA complexes on Gαs-immobilized streptavidin beads, qPCR and sequencing
T3 construct: Immobilized on streptavidin magnetic beads
T3 sequence (P63092 other isoform, or with tags, fused parts or gaps limits assumed): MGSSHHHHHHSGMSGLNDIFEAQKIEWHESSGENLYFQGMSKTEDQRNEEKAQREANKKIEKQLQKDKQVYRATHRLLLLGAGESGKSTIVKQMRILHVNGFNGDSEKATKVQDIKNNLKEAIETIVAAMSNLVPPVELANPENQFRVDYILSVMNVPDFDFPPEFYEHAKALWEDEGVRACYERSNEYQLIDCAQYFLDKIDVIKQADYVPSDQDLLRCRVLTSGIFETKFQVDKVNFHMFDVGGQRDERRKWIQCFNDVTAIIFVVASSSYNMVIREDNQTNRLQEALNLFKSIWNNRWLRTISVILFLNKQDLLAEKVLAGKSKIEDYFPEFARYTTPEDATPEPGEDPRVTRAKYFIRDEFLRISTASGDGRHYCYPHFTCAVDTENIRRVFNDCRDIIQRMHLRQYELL

Molecule | inhibition of WT Gαs [1] | inhibition of R201C Gαs [2] | inhibition of R201H Gαs [3] | inhibition with S275L mutation in the cyclic peptide binding site [4] | binding to R201C Gαs/GDP [5] | IC50, inhibition of Gαs-mediated adenylyl cyclase activation (cAMP production, reconstituted Gαs activity assay) [6] [µM] | IC50, inhibition of ISO-stimulated Gαs activity (cAMP) in HEK293 cell membranes [7] [µM] | binding result [8] | binding result [9] | fold selectivity for GppNHp-bound over GDP-bound Gαs [10] [fold]
CC[C@H](C)[C@@H]1NC(=O)[C@H](Cc2c[nH]cn2)NC(=O)[C@H](Cc2ccc(O)cc2)NC(=O)[C@H]([C@@H](C)CC)NC(=O)[C@H](CO)NC(=O)[C@H](CCC(N)=O)NC(=O)[C@H](Cc2ccccc2)NC(=O)[C@@H](Cc2ccc(O)cc2)NC(=O)CSC[C@@H](C(N)=O)NC(=O)[C@H](CC(C)C)NC(=O)[C@H](CCC(=O)O)NC(=O)CNC(=O)[C@H](Cc2c[nH]c3ccccc23)NC1=O [GR6] ({CH2CO}-[dY]FQSIYHIWGELC-NH2; thioether N-13) | potently inhibits | inhibits | inhibits | blocked | increased binding |  |  |  |  | 
B1 |  |  |  |  |  | 4.15 | 12.2 | no binding | no binding | > 100
